Measured values as given in ChEMBL document CHEMBL5724914, “Linking interpersonal differences in gut microbiota composition and drug biotransformation activity” (2024).

Legend:
[1] = (§1) The drug is tested on Z-027 corresponding to metagenome with ENA study accession number: PRJEB37062 and ENA sample accession number: ERS12561826 for biotransformation under anaerobic condition. The drug concentrations were measured over 9 timepoints collected between 0 and 24 hours of incubation by liquid-chromatography-coupled mass spectrometry (LC–MS); details: 2 µM
[2] = (§2) The drug is tested on WLS-220 corresponding to human gut metagenome with ENA study accession number: PRJEB37062 and ENA sample accession number: ERS12561769 for biotransformation under anaerobic condition. The drug concentrations were measured over 9 timepoints collected between 0 and 24 hours of incubation by liquid-chromatography-coupled mass spectrometry (LC–MS); details: 2 µM
[3] = as §2, with “WLS-240” for “WLS-220”, “ERS12561773” for “ERS12561769”; details: 2 µM
[4] = as §2, with “Z-013” for “WLS-220”, “rabbit” for “human”, “ERS12561813” for “ERS12561769”; details: 2 µM
[5] = as §1, with “Z-004” for “Z-027”, “ERS12561804” for “ERS12561826”; details: 2 µM
[6] = as §2, with “WLS-350” for “WLS-220”, “ERS12561789” for “ERS12561769”; details: 2 µM
[7] = as §2, with “Z-003” for “WLS-220”, “pig” for “human”, “ERS12561803” for “ERS12561769”; details: 2 µM
[8] = human gut metagenome, 24 h, 2 µM
[9] = human gut metagenome, 24 h, 2 µM; remark: listed apart in the source
[10] = as §2, with “Z-020” for “WLS-220”, “rabbit” for “human”, “ERS12561819” for “ERS12561769”; details: 2 µM
[11] = human gut metagenome, 24 h, 2 µM; remark: listed apart in the source
[12] = human gut metagenome, 24 h, 2 µM; remark: listed apart in the source
[13] = human gut metagenome, 24 h, 2 µM; remark: listed apart in the source
[14] = as §1, with “Z-010” for “Z-027”, “ERS12561810” for “ERS12561826”; details: 2 µM
[15] = human gut metagenome, 24 h, 2 µM; remark: listed apart in the source
[16] = as §1, with “Z-026” for “Z-027”, “ERS12561825” for “ERS12561826”; details: 2 µM
[17] = human gut metagenome, 24 h, 2 µM; remark: listed apart in the source
[18] = human gut metagenome, 24 h, 2 µM; remark: listed apart in the source
[19] = as §2, with “WLS-370” for “WLS-220”, “ERS12561793” for “ERS12561769”; details: 2 µM
[20] = human gut metagenome, 24 h, 2 µM; remark: listed apart in the source
Note: call rule not given here.

Row | Bacterial Biotransformation [1] | Bacterial Biotransformation [2] | Bacterial Biotransformation [3] | Bacterial Biotransformation [4] | Bacterial Biotransformation [5] | Bacterial Biotransformation [6] | Bacterial Biotransformation [7] | Bacterial Biotransformation [8] | Bacterial Biotransformation [9] | Bacterial Biotransformation [10] | Bacterial Biotransformation [11] | Bacterial Biotransformation [12] | Bacterial Biotransformation [13] | Bacterial Biotransformation [14] | Bacterial Biotransformation [15] | Bacterial Biotransformation [16] | Bacterial Biotransformation [17] | Bacterial Biotransformation [18] | Bacterial Biotransformation [19] | Bacterial Biotransformation [20] | SMILES
1 | Compound NOT metabolized | Compound metabolized | Compound metabolized | Compound NOT metabolized | Compound NOT metabolized | Compound NOT metabolized | Compound metabolized | Compound metabolized | Compound metabolized | Compound NOT metabolized | Compound metabolized | Compound metabolized | Compound NOT metabolized | Compound NOT metabolized | Compound NOT metabolized | Compound NOT metabolized | Compound NOT metabolized | Compound NOT metabolized | Compound NOT metabolized | Compound NOT metabolized | CCN(CC)CCNC(=O)c1cc(S(C)(=O)=O)ccc1OC [TIAPRIDE]
2 | Compound NOT metabolized | Compound NOT metabolized | Compound NOT metabolized | Compound NOT metabolized | Compound NOT metabolized | Compound NOT metabolized | Compound NOT metabolized | Compound NOT metabolized | Compound NOT metabolized | Compound NOT metabolized | Compound NOT metabolized | Compound NOT metabolized | Compound NOT metabolized | Compound NOT metabolized | Compound NOT metabolized | Compound NOT metabolized | Compound NOT metabolized | Compound NOT metabolized | Compound NOT metabolized | Compound NOT metabolized | CC(C)(C)NC[C@H](O)COc1nsnc1N1CCOCC1.O=C(O)/C=C\C(=O)O [TIMOLOL MALEATE]
3 | Compound NOT metabolized | Compound NOT metabolized | Compound NOT metabolized | Compound NOT metabolized | Compound NOT metabolized | Compound NOT metabolized | Compound NOT metabolized | Compound NOT metabolized | Compound NOT metabolized | Compound NOT metabolized | Compound NOT metabolized | Compound NOT metabolized | Compound NOT metabolized | Compound NOT metabolized | Compound NOT metabolized | Compound NOT metabolized | Compound NOT metabolized | Compound NOT metabolized | Compound NOT metabolized | Compound NOT metabolized | CC[C@@]1(O)C(=O)OCc2c1cc1n(c2=O)Cc2cc3c(CN(C)C)c(O)ccc3nc2-1 [TOPOTECAN]

Row | SMILES | Bacterial Biotransformation [1] | Bacterial Biotransformation [2] | Bacterial Biotransformation [3] | Bacterial Biotransformation [4] | Bacterial Biotransformation [5] | Bacterial Biotransformation [6] | Bacterial Biotransformation [7] | Bacterial Biotransformation [8] | Bacterial Biotransformation [9] | Bacterial Biotransformation [10] | Bacterial Biotransformation [11] | Bacterial Biotransformation [12] | Bacterial Biotransformation [13] | Bacterial Biotransformation [14] | Bacterial Biotransformation [15] | Bacterial Biotransformation [16] | Bacterial Biotransformation [17] | Bacterial Biotransformation [18] | Bacterial Biotransformation [19] | Bacterial Biotransformation [20]
4 | COc1ccc(C(CN(C)C)C2(O)CCCCC2)cc1 (stereo not given) [VENLAFAXINE] | Compound NOT metabolized | Compound NOT metabolized | Compound metabolized | Compound NOT metabolized | Compound NOT metabolized | Compound NOT metabolized | Compound NOT metabolized | Compound NOT metabolized | Compound metabolized | Compound NOT metabolized | Compound metabolized | Compound NOT metabolized | Compound NOT metabolized | Compound NOT metabolized | Compound NOT metabolized | Compound NOT metabolized | Compound NOT metabolized | Compound NOT metabolized | Compound NOT metabolized | Compound NOT metabolized
